The source of these data is PMC7464159, “Triple Negative Breast Cancer and Breast Epithelial Cells Differentially Reprogram Glucose and Lipid Metabolism upon Treatment with Triterpenic Acids” (Biomolecules, 2020).

Where two headings read alike, the source gives them in different places.

In test [1] the test system is MCF-10A cells. Nature of the test: MTT cell viability assay. The settings on record: Homo sapiens, mean ± SD, read-out: IC50 cell viability inhibition. The class given is cell-based. How it is done:
(§1) Cells were cultured in 96-well plates at 2 × 10^5 cells/mL (100 µL per well) and treated the following day with either BA or UA (0.5–50 µM), for 24 h, 48 h and 72 h. Vehicle solvent control cells received DMSO (0.25% v/v). Cell viability was estimated by the 3-(4,5-dimethylthiazol-2-yl)-2,5-diphenyltetrazolium bromide (MTT) assay as previously described by. After treatment incubation, 20 μL of MTT stock solution was added to each well (final concentration 0.5 mg/mL), and plates were incubated at 37 °C, for 4 h. Then, the medium was removed, and the formed formazan crystals were dissolved using a DMSO/ethanol (1:1) solution. Finally, absorbance of the formed product was measured at 570 nm using a microplate reader (MultiSkan FC, Thermo Fisher Scientific, Rochester, NY, USA). The IC50, defined as the concentration necessary to cause 50% inhibition of cell viability, was calculated using GraphPad Prism 5.0 (GraphPad Prism Software Inc., San Diego, CA, USA), by plotting the percentage of cell viability as a function of sample concentration logarithm. Three independent experiments were performed for each treatment.

The subject of test [2] is MDA-MB-231 cells. Nature of the test: MTT cell viability assay. It is filed as cell-based. The settings on record: Homo sapiens, mean ± SD, read-out: IC50 cell viability inhibition. As for the experimental part: as §1
(In general: Formazan colour is commonly taken as a measure of viable cells.)

Test [3] has as its system MCF-10A cells. Nature of the test: 1H NMR analysis of organic cell extracts (lipids). The following applies: for levels of triglycerides: vs control cells. It is filed as cell-based, human. How it is done: (§2) MDA-MB-231 and MCF-10A cells were seeded in 10-cm-diameter Petri dishes at a density of 6 × 10^5 cells/mL (10 mL per dish) and cultured for 24 h at 37 °C. Cells were then incubated for 48 h with BA (5 and 15 µM) or UA (10 and 20 µM). Vehicle solvent control cells received DMSO (0.10% v/v). Samples were collected immediately after 48 h incubation or, to assess cellular recovery, medium was replaced with fresh growth medium (without TAs), and cells were incubated for additional 24 h before collection (48 + 24 h samples). Four independent assays were performed.
(§3) After incubation, culture medium was collected and centrifuged (1000× g, 5 min) and the supernatant stored at −80 °C until analysis. Culture medium without cells was placed under the same conditions and collected. Cell extraction was performed as described by Carrola et al.. Briefly, cells were washed four times with PBS and extracted with a mixture of methanol:chloroform:water (1:1:0.7). The resulting polar and organic phases were collected and then dried under vacuum or under a stream of nitrogen gas, respectively. All samples were stored at −80 °C and, at the time of analysis, dried polar extracts were reconstituted in 600 µL of deuterated phosphate buffer (100 mM, pH 7.4) containing 0.1 mM TSP-d4, while organic extracts were reconstituted in deuterated chloroform containing 0.03% TMS. Regarding medium samples, 540 μL were mixed with 60 μL of D2O containing 0.25% TSP-d4. Prior to analysis, 550 μL of each sample were transferred to 5 mm NMR tubes.
(§4) ^1H NMR spectra of all samples were acquired on a Bruker Avance III HD 500 NMR spectrometer (University of Aveiro, Portuguese NMR Network) operating at 500.13 MHz for ^1H observation equipped with a 5 mm TXI probe. Standard 1D spectra (Bruker pulse programs ‘noesypr1d’, with water suppression, for medium samples and aqueous extracts, and ‘zg’ for organic extracts) were recorded with a 7002.8 Hz spectral width, 32 k data points, a 2 s relaxation delay and 512 scans. Spectral processing comprised exponential multiplication with 0.3 Hz line broadening, zero filling to 64 k data points, manual phasing, baseline correction, and chemical shift calibration to the TSP or TMS signal at 0 ppm. 2D ^1H-^1H total correlation (TOCSY) spectra, ^1H-^13C heteronuclear single quantum correlation (HSQC) spectra and J-resolved spectra were also registered for selected samples to assist spectral assignment. Metabolites were identified with the support of 2D spectra and the spectral reference databases BBIOREFCODE-2-0-0 (Bruker Biospin, Rheinstetten, Germany) and HMDB [28]. Selected signals were then integrated using the AmixViewer software […] (version 3.9.14, Bruker BioSpin, Rheinstetten, Germany) and normalized by the total spectral area. The magnitude of each metabolite change was assessed through the percentage of variation (and its respective error) in exposed samples relatively to controls, and through the effect size (ES) adjusted for small sample numbers (and respective standard error). Metabolite variations with absolute ES greater than 0.8 were expressed in a heatmap, colored as a function of the percentage of variation, employing the R statistical software.

Test [4] concerns MDA-MB-231 cells. Nature of the test: 1H NMR analysis of organic cell extracts (lipids). It is filed as cell-based, human. The following applies: 48 h; for levels of neutral lipids (cholesteryl esters and triglycerides): vs control; for plasmalogen lipids: high exposure concentration. As for the experimental part: as §2, §3, §4
The test system of test [5] is MDA-MB-231 cells. On the set-up: method as in PMID 28213701. The settings on record: MDA-MB-231, 24 h incubation; read-out: IC50 reported in the literature; cited from earlier work.

Regarding `C=C(C)[C@@H]1CC[C@]2(C(=O)O)CC[C@]3(C)[C@H](CC[C@@H]4[C@@]5(C)CC[C@H](O)C(C)(C)[C@@H]5CC[C@]43C)[C@@H]12` [BA, betulinic acid], the IC50 in the test on MCF-10A cells [1] (24 h) was 22.4 ± 6.49 µM; in the test with MCF-10A cells [1] (48 h), 11 ± 1.83 µM; in the test on MCF-10A cells [1] (72 h), 2.38 ± 1.36 µM; in the test on MDA-MB-231 cells [2] (MDA-MB-231, 24 h), 31.3 ± 5.94 µM; in the test on MDA-MB-231 cells [2] (MDA-MB-231, 48 h) it was 13.2 ± 2.3 µM; in the test with MDA-MB-231 cells [2] (MDA-MB-231, 72 h), 8.39 ± 0.98 µM. Also, in the test on MDA-MB-231 cells [5], the IC50 was 30.6 µM. Further, in the test on MCF-10A cells [3] (BA), the “levels of glycerophospholipids (including plasmalogen)” value was “decreased levels”. In addition, in the test with MCF-10A cells [3] (BA), the “relative amount of free cholesterol” value is reported as “increased”. Also, the levels of triglycerides entry in the test on MCF-10A cells [3] is “increased levels”. Besides, in the test on MDA-MB-231 cells [4], the “levels of neutral lipids (cholesteryl esters and triglycerides)” value is “decreased significantly”. Besides, the “total glycerophospholipids and free cholesterol” value in the test with MDA-MB-231 cells [4] (BA) was “increased”. In the test with MDA-MB-231 cells [4], the plasmalogen lipids result was “decreased”.
Take `C[C@H]1[C@H](C)CC[C@]2(C(=O)O)CC[C@]3(C)C(=CC[C@@H]4[C@@]5(C)CC[C@H](O)C(C)(C)[C@@H]5CC[C@]43C)[C@H]12` [UA, ursolic acid]: the IC50 was 37.9 ± 8.93 µM in the test on MCF-10A cells [1] (24 h); 18.7 ± 3.27 µM in the test with MCF-10A cells [1] (48 h); 21.5 ± 4.55 µM in the test with MCF-10A cells [1] (72 h); 24.5 ± 4.61 µM in the test on MDA-MB-231 cells [2] (MDA-MB-231, 24 h); 17.2 ± 0.86 µM with MDA-MB-231 cells [2] (MDA-MB-231, 48 h); 17.7 ± 2.81 µM with MDA-MB-231 cells [2] (MDA-MB-231, 72 h). Moreover, the IC50 in the test on MDA-MB-231 cells [5] was 22.9 µM. For the same compound, in the test with MCF-10A cells [3], the levels of triglycerides entry was “increases”. Further, the “levels of neutral lipids (cholesteryl esters and triglycerides)” value in the test on MDA-MB-231 cells [4] is “decreased levels”. Also, the plasmalogen lipids result in the test with MDA-MB-231 cells [4] was “decreased levels”.

In general, IC50 refers to the point on the concentration scale where inhibition reaches its midpoint.
